The record followed here is ChEMBL document CHEMBL1149610, “Bicyclo[2.2.2]octyl esters of dialkylamino acids as antiprotozoals” (Bioorg Med Chem, 2007).

Where only a bound is given, the exact number is not on record here.

Experiment [1] can be described thus: Selectivity index, ratio of IC50 for rat L6 cells to IC50 for Trypanosoma brucei rhodesiense. It counts as functional.
Experiment [2] is described as follows: Selectivity index, ratio of IC50 for rat L6 cells to IC50 for Plasmodium falciparum K1. The format is functional.
In experiment [3] the test system is Trypanosoma brucei rhodesiense. Put plainly: Antitrypanosomal activity against Trypanosoma brucei rhodesiense after 72 hrs by microplate assay. It counts as functional, organism-based.
The next experiment concerns Plasmodium falciparum. The experiment in a line: Antiplasmodial activity against chloroquine, pyrimethamine-resistant Plasmodium falciparum K1 after 48 hrs. Particulars: K1, 48 h. The format is functional, organism-based.
The next experiment relates to L6. Put plainly: Cytotoxicity against rat L6 cells after 72 hrs by microplate assay. The format is cell-based. The following applies: L6, 72 h.

`O=C(CN1CCCC1)OC1CC2(N3CCCCC3)CC(c3ccccc3)C1C(c1ccccc1)C2` (racemic): the “Ratio IC50” value in experiment [1] turned out to be 51.19; in experiment [2], 34.85.
In the same order, the values of `CN(C)C12CC(OC(=O)CN3CCCC3)C(C(c3ccccc3)C1)C(c1ccccc1)C2` (racemic) are 155.5 and 46.
Consider `O=C(OC1CC2(N3CCCC3)CC(c3ccccc3)C1C(c1ccccc1)C2)c1ccc2c(c1)OCO2` (racemic), for which the half-maximal inhibitory concentration (IC50) (usually the concentration that inhibits the measured activity by half) was 0.82 µM in experiment [3], 0.39 µM in the experiment with Plasmodium falciparum and 5.65 µM in the experiment with L6. The “Ratio IC50” value in experiment [1] is on record as 6.89; in experiment [2], 14.49.
In the same order, the values of `CC(C)(C)C(=O)OC1CC2(N3CCCC3)CC(c3ccccc3)C1C(c1ccccc1)C2` (racemic) are 1.38 µM, 0.99 µM, 7.62 µM, 5.52 and 7.7.
With `CCN(CC)CC(=O)OC1CC2(N3CCCCC3)CC(c3ccccc3)C1C(c1ccccc1)C2` (racemic), the results for the “Ratio IC50” value in experiment [1] and in experiment [2] were 42.71 and 95.68, respectively.
For `CC(=O)OC1CC2(N3CCCCC3)CC(c3ccccc3)C1C(c1ccccc1)C2` (racemic), the 50% inhibitory concentration (IC50) is 9.89 µM in experiment [3] and > 11 µM with Plasmodium falciparum.
Take `CN(C)C12CC(OC(=O)C(C)(C)C)C(C(c3ccccc3)C1)C(c1ccccc1)C2` (racemic): the results for the IC50 (in experiment [3]; in the experiment with Plasmodium falciparum; with L6) were 0.62 µM, 0.42 µM and 5.06 µM, respectively. In addition, the “Ratio IC50” value in experiment [1] was 8.16; in experiment [2], 12.05.
Take `C[C@@H]1CC[C@H]2[C@@H](C)C(=O)O[C@@H]3O[C@@]4(C)CC[C@@H]1[C@]32OO4` [ARTEMISININ]: the half-inhibitory concentration (IC50) in the experiment on Plasmodium falciparum stood at 0.0064 µM.
On to `CCN(CC)CC(=O)OC1CC2(N(C)C)CC(c3ccccc3)C1C(c1ccccc1)C2` (racemic), for which the “Ratio IC50” value in experiment [1] was found to be 49.41; in experiment [2] it was 11.08.
As for `CCN(CC)CC(=O)OC1CC2(N3CCCC3)CC(c3ccccc3)C1C(c1ccccc1)C2` (racemic), the “Ratio IC50” value in experiment [1] stood at 68.06; in experiment [2], 245.
In the same order, the values of `O=C(CN1CCCCC1)OC1CC2(N3CCCC3)CC(c3ccccc3)C1C(c1ccccc1)C2` (racemic) are 38.43 and 38.43.
In the same order, the values of `CN(C)C12CC(OC(=O)CN3CCCCC3)C(C(c3ccccc3)C1)C(c1ccccc1)C2` (racemic) are 14.7 and 56.27.
On to `CN(C)C12CC(OC(=O)c3ccc4c(c3)OCO4)C(C(c3ccccc3)C1)C(c1ccccc1)C2` (racemic), for which the results for the IC50 (in experiment [3]; with Plasmodium falciparum; with L6) were 0.98 µM, 0.34 µM and 5.32 µM, respectively. Also, the results for the “Ratio IC50” value in experiment [1] and in experiment [2] were 5.43 and 15.65, respectively.
With `CN(C)C12CC(O)C(C(c3ccccc3)C1)C(c1ccccc1)C2` (racemic), the “Ratio IC50” value in experiment [1] is 44.92; in experiment [2], <8.53.
As for `CC(=O)OC1CC2(N3CCCC3)CC(c3ccccc3)C1C(c1ccccc1)C2` (racemic), the IC50 in experiment [3] is 4.93 µM; with Plasmodium falciparum it was > 11.7 µM.
In the case of `CN(C)C12CC(OC(=O)/C=C/c3ccccc3)C(C(c3ccccc3)C1)C(c1ccccc1)C2` (racemic), the IC50 in experiment [3] stood at 0.83 µM; in the experiment with Plasmodium falciparum it was 0.69 µM; in the experiment on L6 it was 3.82 µM. Besides, the “Ratio IC50” value is 4.6 in experiment [1] and 5.54 in experiment [2].
In the same order, the values of `O=C(/C=C/c1ccccc1)OC1CC2(N3CCCCC3)CC(c3ccccc3)C1C(c1ccccc1)C2` (racemic) are 1.41 µM, 0.45 µM, 10.5 µM, 7.43 and 23.27.
In the same order, the values of `O=C(CN1CCCC1)OC1CC2(N3CCCC3)CC(c3ccccc3)C1C(c1ccccc1)C2` (racemic) are 0.23 µM, 0.7 µM, 42.9 µM, 186.7 and 61.34.
In the same order, the values of `O=C(OC1CC2(N3CCCCC3)CC(c3ccccc3)C1C(c1ccccc1)C2)c1ccc2c(c1)OCO2` (racemic) are 2.51 µM, 0.55 µM, 12.7 µM, 5.07 and 23.15.
Consider `CC(=O)OC1CC2(N(C)C)CC(c3ccccc3)C1C(c1ccccc1)C2` (racemic), for which the IC50 in experiment [3] was 4.75 µM; with Plasmodium falciparum, > 12.5 µM.
`CC(C)(C)C(=O)OC1CC2(N3CCCCC3)CC(c3ccccc3)C1C(c1ccccc1)C2` (racemic): the values for the IC50 (in experiment [3]; in the experiment on Plasmodium falciparum; in the experiment on L6) were 2.69 µM, 7.93 µM and 12 µM, respectively. The “Ratio IC50” value in experiment [1] is recorded as 4.46; in experiment [2], 1.51.
In the same order, the values of `O=C(/C=C/c1ccccc1)OC1CC2(N3CCCC3)CC(c3ccccc3)C1C(c1ccccc1)C2` (racemic) are 1.04 µM, 0.63 µM, 3.5 µM, 3.37 and 5.56.
For the compound `O=C(CN1CCCCC1)OC1CC2(N3CCCCC3)CC(c3ccccc3)C1C(c1ccccc1)C2` (racemic), the “Ratio IC50” value in experiment [1] stood at 69.41; in experiment [2], 335.5.
